Assay results taken from patent US4085096A, “Hexapeptides and methods for their production” (Parke, Davis & Company, priority 1976, dated 1978).
Where “and” joins values, the source holds several entries; their conditions need not be identical. Identical values can stand only once.

System: LRF (luteinizing hormone releasing factor) induced luteinizing hormone (LH) release
Test: In vitro LRF antagonist test in rat anterior pituitary cell cultures
Type: cell-based
Conditions: for % LH Release Inhibition: test compound Molar Conc. 1 × 10^-6
From the text: Hexapeptides of this invention were screened for LRF antagonist activity in vitro using rat anterior pituitary cell cultures as described by Vale et. al. [Endocrinology, 91, 562 (1972)]. The inhibition of LRF (luteinizing hormone releasing factor) induced luteinizing hormone (LH) release into the culture medium is the endpoint in this in vitro bioassay.

[1] = test compound Molar Conc. 1 × 10^-6, LH released into culture medium

N^α -t-Butoxycarbonyl-L-tryptophyl-N^im -benzyl-L-histidyl-O-benzyl-L-tyrosyl-O-benzyl-L-seryl-L-prolyl-D-alanine N-ethylamide
% LH Release Inhibition: 100% | LH Value [1]: 5.57 ng/mL

LRF: luteinizing hormone releasing factor; stimulates secretion of luteinizing hormone from the anterior pituitary; used as stimulus control (QHWSYGLRPG; Gonadoliberin-1; UniProt P01148 24-33, looked up) [reference compound]
LH Value (LRF Control, Molar Conc. 2.5 × 10^-10): 38.98 ng/mL | LH Value (LRF Control, Molar Conc. 3.5 × 10^-10): 66.03 ng/mL and 35.60 ng/mL

N^α -t-Butoxycarbonyl-N^im -benzyl-L-histidyl-L-tryptophyl-N^im -benzyl-L-histidyl-O-benzyl-L-tyrosyl-O-benzyl-L-seryl-D-alanine N-ethylamide
% LH Release Inhibition: 73% | LH Value [1]: 24.80 ng/mL

N^α -Benzyloxycarbonyl-L-glutaminyl-L-tryptophyl-N^im -benzyl-L-histidyl-O-benzyl-L-tyrosyl-O-benzyl-L-seryl-D-alanine methyl ester
% LH Release Inhibition: 86% | LH Value [1]: 13.53 ng/mL
